Reference: US9856225B2, “Substituted phenazines as antimicrobial agents” (University of Florida Research Foundation, Incorporated, priority 2013, dated 2018)
Read-outs that look alike come from different tables or passages of the source.

Columns and labels:
[1] = test system: Staphylococcus aureus (ATCC 25923) established biofilm; test: Biofilm dispersion, crystal violet staining; assay type: cell-based; conditions: for EC50: Staphylococcus aureus, read-out: Biofilm Dispersion EC50
Protocol: Biofilm Dispersion Protocol for Staphylococcus aureus (ATCC 25923): A single colony grown on tryptic soy agar (TSA) solid medium is amplified in 2 milliliters of tryptic soy broth (TSB) medium with 0.5% glucose to an OD600=0.8-1.0. The bacterial suspension was then diluted to 1×10^6 CFU/mL in TSB with 0.5% glucose. Sterile 96-well flat-bottomed polystyrene plates (0.1% gelatin coated overnight) were then filled with 200 μL of this bacterial suspension. The plates were then covered and incubated for 24 hours at 37° C. Following this, the contents of the wells were discarded and washed with 200 μL PBS (one time). Then serial, two-fold dilutions of bromophenazine small molecules in 200 μL PBS were delivered into each well. The plates were then covered and incubated for another 24 hours at room temperature. After this incubation time, the plates were gently washed with water three times (wells were rinsed by submerging the entire plates in a tub of cold, running tap water). Remaining biofilms were then fixed with 200 μL of methanol for 15 minutes. The plates were emptied and left to air dry. Upon drying, 100 μL of 1% crystal violet was added to each well for 10 minutes, then washed three times with water and again air dried. For quantitative assessment of biofilm formation 100 μL per well of bleaching solution (methanol:glacial acetic acid:water (v/v/v)=4:1:5 with rotary shaking for 1 hour) was used. Remaining biofilm was measured using a spectrophotometer (absorbance readings at 540 nm).
Further microdilution MIC assays were carried out for 11, 21-26, and 4a-29a against Staphylococcus aureus (ATCC 25923) in Luria Broth media (at ˜10^5 CFUmL^−1) to establish the level of growth inhibition for each compound (see FIGS. 5-13). […] Differentiation of a “biofilm inhibitor” from an antibacterial agent was carried out according to the ratio of MIC/IC50 of biofilm inhibition (based on crystal violet staining dose-response). […] Following the biofilm inhibition screen, bromophenazines 12a, 14a, 18a and 20a were evaluated in three independent biofilm inhibition experiments against Staphylococcus aureus to obtain replicate data. […] In addition to inhibiting biofilm formation, small molecules that are able to disperse or clear preexisting bacterial biofilms would be highly valuable. Six of the bromophenazine analogues (11, 4a, 8a, 23a, 27a, 28a; see Table 2 and FIGS. 18-19) were evaluated in biofilm dispersion assays by allowing Staphylococcus aureus biofilms to establish in 96-well plates for 24 hours at 37° C. After this incubation time, the media and planktonic cells were removed followed by a wash of the 96-well plates with water. Phosphate buffered saline (PBS) was then added to the 96-well plate followed by the addition of bromophenazine compounds (with 2-fold serial dilutions of each compound tested). The resulting plates were then allowed to incubate at room temperature for 24 hours and stained with crystal violet to quantify biofilm dispersion.

[2] = test system: Staphylococcus aureus (ATCC 25923); test: MIC broth microdilution (CLSI), Luria Broth; assay type: cell-based; conditions: for fold more potent than compound 1: from MIC
Outline: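 Two-fold serial dilutions (0.10–100 μM, eleven points) in Luria Broth, each well inoculated with 10^5 cells from log-phase culture (OD600 0.5), per CLSI broth microdilution. DMSO vehicle up to 1% v/v as negative control; kanamycin positive control for the staphylococci.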

[3] = test system: Staphylococcus aureus (ATCC 25923) biofilm; test: Biofilm inhibition, crystal violet staining; assay type: cell-based; design: MIC/IC50 Biofilm: unit not given here; conditions: for Phenotype: planktonic growth vs biofilm formation; for IC50: Staphylococcus aureus, ATCC25923; for MIC/IC50 Biofilm: ratio of MIC to IC50 of biofilm inhibition
Protocol: Biofilm Inhibition Protocol for S. aureus (ATCC 25923). A serial two-fold dilution of 2× bromophenazine small molecule concentration was made in 100 μL tryptic soy broth (TSB) medium with 0.5% glucose were delivered into 0.1% gelatin (Millipore) coated 96-well tissue culture plates. […] To each well, 100 μL of TSB with 0.5% glucose containing 2×10^6 CFU/mL Staphylococcus aureus cells, prepared from fresh culture (OD600 of 0.8), was added. The plates were incubated at 37° C. for 24 hours. The wells were gently rinsed by submerging the entire plates in a tub of cold, running tap water. The wells were then fixed with 200 μL methanol for 15 minutes. After the plates were air dried, the biofilms were stained with 100 μL of 1% crystal violet for 10 minutes. The plates were again rinsed with running water. After drying in air, quantitative assessment of biofilm formation was obtained by extracting the crystal violet associated with the remaining biofilm with 100 μL per well of the following bleaching solution (methanol:glacial acetic acid:water (v/v/v)=4:1:5). This bleaching solution dissolved the bound crystal violet and produced a violet-colored solution in each well. The intensity of coloration was determined by measuring the absorbance at 540 nm.

[4] = Hydrolysis stability in sterile water; assay type: physicochemical; conditions: 24 hours at 37° C., static, TLC and NMR
Protocol: Compound storage. Solid stocks of the compounds described herein were stored at −80° C. in vials sealed with PARAFILM. Between 2.0 and 4.5 milligrams of each compound was weighed out, and a 10 mM DMSO stock solution of each compound were prepared. DMSO stock solutions were stored at room temperature in the dark (e.g., wrapped in aluminum foil). At this concentration, a few compounds required gentle heating to completely solubilize. DMSO stock solutions were not subjected to any freeze-thaw cycles to prevent compound breakdown. The compounds were stable in DMSO for several weeks under these mild storage conditions, with the exception of pyocyanin. Pyocyanin is unstable in DMSO at room temperature after one day. […] DMSO stock solutions of about 2 milligrams of pyocyanin were made fresh each day. The hydrolysis stability of select compounds was also tested, e.g., by subjecting these compounds to conditions mimicking the biofilm assays described herein. In one set of exemplary experiments, 3.2 to 4.5 mgs of each of compounds 18a, 12a, 23a, and 21 were treated with 1 mL of sterile water to form a mixture. Each of the mixtures was allowed to be incubated for 24 hours at 37° C. under static conditions analogous to the S. aureus biofilm inhibition assays described herein. After 24 hours, each of the mixtures was extracted with dichloromethane and evaluated, using TLC and NMR, for hydrolysis of each of compounds 18a, 12a, 23a, and 21 to compound 11.

[5] = ATCC25923, S. aureus ATCC 25923, 24 h in PBS at room temperature
[6] = Staphylococcus aureus, ATCC25923, Table 2, S. aureus ATCC 25923, Luria Broth, read-out: MIC
[7] = Table 2, S. aureus ATCC 25923, Luria Broth, read-out: MIC
[8] = S. aureus ATCC 25923, single replicate screen, read-out: Biofilm Inhibition IC50
[9] = Staphylococcus aureus, ATCC25923, Table 1, ATCC 25923, range tested 0.10 to 100 μM, read-out: Staphylococcus aureus MIC
[10] = Staphylococcus aureus, ATCC25923, Table 1, ATCC 25923, read-out: Staphylococcus aureus MIC
[11] = S. aureus, three independent experiments, read-out: Biofilm inhibition IC50 (triplicate)

CCC(=O)Oc1c(Br)cc(Br)c2nc3ccccc3nc12 [Compound 4a]
Biofilm Dispersal Agent? ([1]; S. aureus ATCC 25923): Yes | EC50 [1, 5]: 2600 nM | MIC [2, 6]: 0.78 to 1.56 µM | MIC [2, 7]: 1.56 µM | Phenotype ([3]; S. aureus ATCC 25923): antibacterial | IC50 [3, 8]: 920 nM | MIC/IC50 Biofilm ([3]; S. aureus ATCC 25923): 1.7

O=C(CCCC(=O)Oc1c(Br)cc(Br)c2nc3ccccc3nc12)Oc1c(Br)cc(Br)c2nc3ccccc3nc12 [Compound 5a]
MIC [2, 6]: > 100 µM | IC50 [3, 8]: 12100 nM | MIC/IC50 Biofilm ([3]; S. aureus ATCC 25923): >8.3

O=C(OCCc1ccccc1)Oc1c(Br)cc(Br)c2nc3ccccc3nc12 [Compound 8a]
Biofilm Dispersal Agent? ([1]; S. aureus ATCC 25923): No | EC50 [1, 5]: > 100000 nM | MIC [2, 6]: 0.78 to 1.56 µM | MIC [2, 7]: 1.56 µM | Phenotype ([3]; S. aureus ATCC 25923): antibacterial | IC50 [3, 8]: 760 nM | MIC/IC50 Biofilm ([3]; S. aureus ATCC 25923): 2.1

Oc1c(Br)cc(Br)c2nc3ccccc3nc12 [Compound 11, 2,4-Dibromophenazin-1-ol]
Biofilm Dispersal Agent? ([1]; S. aureus ATCC 25923): Yes | EC50 ([1]; ATCC25923, 24 h): 29300 nM | MIC [2, 9]: 1.56 µM | MIC [2, 10]: 0.55 µg/mL | MIC [2, 6]: 1.56 µM | fold more potent than compound 1 ([2]; Staphylococcus aureus): 32 fold | Phenotype ([3]; S. aureus ATCC 25923): antibacterial | IC50 [3, 8]: 410 nM

O=C(Oc1c(Br)cc(Br)c2nc3ccccc3nc12)c1ccc(Br)cc1 [Compound 12a]
MIC [2, 6]: > 100 µM | stability to hydrolysis (to compound 11) [4]: stable to hydrolysis | IC50 [3, 8]: 810 nM | IC50 [3, 11]: 1130 nM

O=C(Oc1c(Br)cc(Br)c2nc3ccccc3nc12)c1ccc(Cl)cc1 [Compound 14a]
MIC [2, 6]: > 100 µM | IC50 [3, 8]: 640 nM | IC50 [3, 11]: 770 nM

O=C(Oc1c(Br)cc(Br)c2nc3ccccc3nc12)c1cccc([N+](=O)[O-])c1 [Compound 15a]
MIC [2, 6]: 0.78 to 1.56 µM | MIC [2, 7]: 1.56 µM | Phenotype ([3]; S. aureus ATCC 25923): antibacterial | IC50 [3, 8]: 360 nM | MIC/IC50 Biofilm ([3]; S. aureus ATCC 25923): 4.3

Cc1ccc(C(=O)Oc2c(Br)cc(Br)c3nc4ccccc4nc23)cc1 [Compound 18a]
MIC [2, 6]: > 100 µM | stability to hydrolysis (to compound 11) [4]: stable to hydrolysis | IC50 [3, 8]: 450 nM | IC50 [3, 11]: 550 nM

CC(=O)Oc1c(Br)cc(Br)c2nc3ccccc3nc12 [Compound 21, 2,4-Dibromophenazin-1-yl acetate]
MIC [2, 9]: 0.78 to 1.56 µM | MIC [2, 10]: 0.31 to 0.62 µg/mL | MIC [2, 6]: 0.78 to 1.56 µM | fold more potent than compound 1 ([2]; Staphylococcus aureus): 32 fold | stability to hydrolysis (to compound 11) [4]: stable to hydrolysis | Phenotype ([3]; S. aureus ATCC 25923): antibacterial | IC50 [3, 8]: 420 nM | MIC/IC50 Biofilm ([3]; S. aureus ATCC 25923): 2.8

O=C(Oc1c(Br)cc(Br)c2nc3ccccc3nc12)c1ccccc1 [Compound 23, 2,4-Dibromophenazin-1-yl benzoate]
MIC [2, 9]: 1.56 µM | MIC [2, 10]: 0.72 µg/mL | MIC [2, 6]: 1.56 µM | Phenotype ([3]; S. aureus ATCC 25923): antibacterial | IC50 [3, 8]: 1710 nM | MIC/IC50 Biofilm ([3]; S. aureus ATCC 25923): 0.9

O=C(Oc1c(Br)cc(Br)c2nc3ccccc3nc12)c1ccco1 [Compound 23a]
Biofilm Dispersal Agent? ([1]; S. aureus ATCC 25923): Yes | EC50 [1, 5]: 1400 nM | MIC [2, 6]: 0.78 to 1.56 µM | MIC [2, 7]: 0.78 µM | stability to hydrolysis (to compound 11) [4]: stable to hydrolysis | Phenotype ([3]; S. aureus ATCC 25923): antibacterial | IC50 [3, 8]: 760 nM

O=C(OCC(Cl)(Cl)Cl)Oc1c(Br)cc(Br)c2nc3ccccc3nc12 [Compound 27a]
Biofilm Dispersal Agent? ([1]; S. aureus ATCC 25923): No | EC50 [1, 5]: > 100000 nM | MIC [2, 6]: 0.78 to 1.56 µM | MIC [2, 7]: 0.78 µM | Phenotype ([3]; S. aureus ATCC 25923): antibacterial | IC50 [3, 8]: 760 nM | MIC/IC50 Biofilm ([3]; S. aureus ATCC 25923): 1.0

COC(=O)Oc1c(Br)cc(Br)c2nc3ccccc3nc12 [Compound 28a]
Biofilm Dispersal Agent? ([1]; S. aureus ATCC 25923): Yes | EC50 [1, 5]: 2900 nM | MIC [2, 6]: 0.78 to 1.56 µM | MIC [2, 7]: 1.56 µM | Phenotype ([3]; S. aureus ATCC 25923): antibacterial | IC50 [3, 8]: 770 nM | MIC/IC50 Biofilm ([3]; S. aureus ATCC 25923): 2.0
